Assays:
Assay in all cases: relative viability (nuclei count vs DMSO), 5 days (fraction); higher = more cells survive
[1] = compound: CC(C)C[C@H](NC(=O)[C@H](Cc1ccccc1)NC(=O)c1cnccn1)B(O)O [Bortezomib] + CC(=O)Nc1cccc(-n2c(=O)n(C3CC3)c(=O)c3c(Nc4ccc(I)cc4F)n(C)c(=O)c(C)c32)c1 [Trametinib] (partner 0.02 µM)
How it was run: (§1)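 Lung cancer cell lines in 1536-well plates were dosed by pin tool the day after seeding, either with one drug alone or with a fixed anchor-drug dose plus five library-drug doses (not always all listed) in √10 steps. After 5 days, cells were fixed and their nuclei stained in one step (final 0.05% Triton X-100, 1% formaldehyde, 1 ug/ml Hoechst), then counted on 4× images. Relative viability is the nuclei count in treated wells divided by that in vehicle wells. Values are medians of duplicate plates.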

[2] = compound: COC1=CC(c2cc3ccccc3[nH]2)=N/C1=C\c1[nH]c(C)cc1C [Obatoclax] + CS(=O)(=O)CCNCc1ccc(-c2ccc3ncnc(Nc4ccc(OCc5cccc(F)c5)c(Cl)c4)c3c2)o1 [Lapatinib] (partner 2 µM)
How it was run: as §1

[3] = compound: CC1=CC(=NN1)NC2=CC(=NC(=N2)/C=C/C3=CC=CC=C3)N4CCN(CC4)C + CC(=O)Nc1cccc(-n2c(=O)n(C3CC3)c(=O)c3c(Nc4ccc(I)cc4F)n(C)c(=O)c(C)c32)c1 [Trametinib] (partner 0.02 µM)
How it was run: as §1

[4] = compound: COC1=CC(c2cc3ccccc3[nH]2)=N/C1=C\c1[nH]c(C)cc1C [Obatoclax] + C[C@]1(O)C[C@@H](c2nc(-c3ccc4ccc(-c5ccccc5)nc4c3)c3c(N)nccn32)C1 [Linsitinib] (partner 1 µM)
How it was run: as §1

For NCI-H650, the relative viability ([1]; first compound 0.0002 µM) was 0.936, the relative viability ([1]; first compound 0.000632 µM) was 1.1 and the relative viability ([1]; first compound 0.002 µM) was 0.857. The relative viability ([1]; first compound 0.006325 µM) was 0.361, the relative viability ([1]; first compound 0.02 µM) was 0.146 and the relative viability ([2]; first compound 0.01 µM) was 1.04. It also gave a relative viability ([2]; first compound 0.03162 µM) of 0.811, a relative viability ([2]; first compound 0.1 µM) of 0.438 and a relative viability ([2]; first compound 0.3162 µM) of 0.511. It also gave a relative viability ([2]; first compound 1 µM) of 0.457, a relative viability ([3]; first compound 0.08 µM) of 0.891 and a relative viability ([3]; first compound 0.253 µM) of 0.706. For the same cell line, the relative viability ([3]; first compound 0.8 µM) was 0.907, the relative viability ([3]; first compound 2.53 µM) was 0.627 and the relative viability ([3]; first compound 8 µM) was 0.166. It also gave a relative viability ([4]; first compound 0.01 µM) of 0.874, a relative viability ([4]; first compound 0.03162 µM) of 0.757 and a relative viability ([4]; first compound 0.1 µM) of 0.329. For the same cell line, the relative viability ([4]; first compound 0.3162 µM) was 0.528 and the relative viability ([4]; first compound 1 µM) was 0.425.

From the supplement of paper PMC10307832
